The record followed here is paper PMC5431086, “The Rational Design of Therapeutic Peptides for Aminopeptidase N using a Substrate-Based Approach” (Scientific Reports, 2017).

Positions of bridges follow the written chain, without caps; N, C: chain ends. Non-standard residues stand in square brackets, D forms with d. Residues, ends and D or L forms follow the SMILES beside them. Primed or numbered codes have the meaning given here. No end group written: not given here. FITC′ = fluorescein isothiocyanate label; Nle = CCCC[C@H](N)C(=O)O

One assay addresses T1, hAPN (aminopeptidase N) (Homo sapiens, UniProt P15144).
T1 construct: human APN ecdomain (residues 66–967) were expressed and purified as previously described; honeybee-melittin signal peptide (N); His6 (C); made in house; host or cells: insect cells
Put plainly: Inhibition of cleavage of fluorogenic alanine substrate (H-Ala-AMC) by APN. It is filed as biochemical. As for the experimental part: Five-residue long peptides containing P1–P4′ residues from primary cleavages in the library were synthesized and tested for their ability to prevent the cleavage of a fluorogenic alanine substrate by hAPN.
The peptides used in this study were custom synthesized by AAPPTEC of Louisville, KY using traditional Fmoc solid-phase peptide synthesis. All of the peptides were purified and characterized by AAPPTEC. […] Inhibition assays were performed in triplicate in a 100 mM Tris pH 7.2, Brij 35 0.0002% w/v assay buffer at 37 °C with 0.1 μM APN and 100 μM H-Ala-AMC (fluorophore). Values were recorded by Infinite pro plate reader every 2 minutes for 30 minutes with laser parameters set for excitation at 355 nm and emission at 460 nm.

Assay [1] has as its system DU145 cells. Put plainly: Clonogenic survival assay, DU145. The format is cell-based. As to the method:
(§1) The potential therapeutic efficacy of cyc-LHSPW was next tested in vitro using the PC3 and DU145 cell lines. […] Prior to in vivo therapeutic efficacy studies, a toxicity study was performed with the i.v. administration of cyc-LHSPW. […] Mice bearing established PC3 and DU145 xenografts were treated systemically via tail vein injection with 40 mg/kg of the tumor homing APN peptide cyc-NGR or the cyc-LHSPW peptide t.i.w. x4 (Fig. 6B). […] This therapeutic effect persisted to the end of the study with the cyc-LHSPW-treated mice having a tumor volume of 309.3 ± 92.7 mm^3 at day 35. […] PC3 tumors were removed and stained for the cellular proliferation marker Ki67.
(§2) Figure 6 The therapeutic evaluation of cyc-LHSPW in vivo and in vitro. (A) The effect of the three peptides cyc-LHSPW, LHSPW and cyc-nHSPW on the clonogenic survival of APN-expressing PC3 cells and APN-null DU145 cells. (B) Tumor growth of PC3 and DU145 xenograft mice treated with 40 mg/kg of cyc-LHSPW, cyc-NGR or saline control three times a week for four weeks. […] Statistical significance of cyc-LHSPW compared with control is denoted by: *P < 0.05; and **P < 0.01, as determined by the Student t test. […]
(§3) The clonogenic survival assays were conducted as previously described. […] Tumor measurements were made twice weekly with calipers and the tumor volume (in mm^3) was calculated by the formula 0.5236 × length (L) × width (W) × height (H). […]

In assay [2] the test system is PC3 cells. Put plainly: Clonogenic survival assay, PC3. It is filed as cell-based. As to the method:
as §1, §2, §3

Assay [3] has as its system PC3 cells. The assay is described as follows: Flow cytometry binding to APN-expressing PC3 cells. The format is cell-based. The note with it: 500 nmol/L, 60 minutes, 4 °C. As for the experimental part:
(§4) Next, the specificity of the lead peptide inhibitor cyc-LHSPW was tested against a panel of cancer-associated proteases with wide-ranging substrate specificities (Fig. 5A). APN was the only protease inhibited by cyc-LHSPW with chymotrypsin, trypsin, PSA, KLK7, aminopeptidase A, and the exopeptidase FAP all having Ki values above 100 μM. Having assessed selectivity for purified APN, we next evaluated the ability of cyc-LHSPW to preferentially bind to cells that express surface APN using flow cytometry (Fig. 5B). […] The expression of cell surface-associated APN was examined in the androgen receptor negative neuroendocrine prostate cancer cell lines PC3 and DU145 using a commercially available antibody. […] The peptide was next tested on frozen PC3 and DU145 tumor xenografts sections.
(§5) Figure 5 Determining the specificity of cyc-LHSPW for APN. (A) The cyc-LHSPW peptide was specific inhibitor of APN when compared to a panel of proteases. (B) Fluorescence microscopy of frozen PC3 (left) and DU145 (right) xenograft sections with cyc-LHSPW-(Gly)4-FITC. Sections were incubated with 250 nM of cyc-LHSPW-(Gly)4-FITC overnight and then visualized. The merged fluoresence channels are cyc-LHSPW-(Gly)4-FITC (green) and nuclei (DAPI, blue). (C) Analysis of APN inhibitor binding to PC3 (left) and DU145 cells (right) by flow cytometry. […]
For orientation: In flow cytometry, cells or beads pass a laser one at a time.

Assay [4] has as its system frozen PC3 and DU145 tumor xenografts sections. Put plainly: Fluorescence microscopy of frozen tumor xenograft sections. The note with it: 250 nM overnight, PC3 vs DU145 sections. As to the method: as §4, §5
Assay [5] relates to DU145 cells. The assay is described as follows: Flow cytometry binding to APN-null DU145 cells. The format is cell-based. The following applies: 500 nmol/L, 60 minutes, 4 °C. As for the experimental part: as §4, §5

T1 sequence (P15144 66-967): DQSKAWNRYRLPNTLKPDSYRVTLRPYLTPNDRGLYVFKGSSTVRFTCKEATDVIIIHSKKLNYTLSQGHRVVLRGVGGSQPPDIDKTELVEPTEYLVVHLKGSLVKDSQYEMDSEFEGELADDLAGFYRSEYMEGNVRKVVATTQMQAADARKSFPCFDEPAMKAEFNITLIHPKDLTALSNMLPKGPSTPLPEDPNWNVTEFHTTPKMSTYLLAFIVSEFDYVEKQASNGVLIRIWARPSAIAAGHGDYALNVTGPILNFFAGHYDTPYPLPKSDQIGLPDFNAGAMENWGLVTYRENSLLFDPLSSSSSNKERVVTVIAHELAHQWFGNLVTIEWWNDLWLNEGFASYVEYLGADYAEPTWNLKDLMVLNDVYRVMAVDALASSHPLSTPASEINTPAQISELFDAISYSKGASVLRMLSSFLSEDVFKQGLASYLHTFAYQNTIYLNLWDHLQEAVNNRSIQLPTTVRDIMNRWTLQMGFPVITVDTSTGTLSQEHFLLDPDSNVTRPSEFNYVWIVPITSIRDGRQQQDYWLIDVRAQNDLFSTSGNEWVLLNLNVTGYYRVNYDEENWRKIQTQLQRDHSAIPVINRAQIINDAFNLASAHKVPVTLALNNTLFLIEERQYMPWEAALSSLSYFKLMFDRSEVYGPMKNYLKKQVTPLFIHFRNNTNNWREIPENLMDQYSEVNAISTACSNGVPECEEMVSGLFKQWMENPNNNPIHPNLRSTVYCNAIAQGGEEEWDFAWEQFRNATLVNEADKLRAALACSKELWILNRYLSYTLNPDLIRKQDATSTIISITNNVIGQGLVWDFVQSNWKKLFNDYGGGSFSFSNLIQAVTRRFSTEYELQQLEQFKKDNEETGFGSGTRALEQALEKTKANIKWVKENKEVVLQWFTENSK

For `CCCC[C@@H]1NC(=O)[C@@H](N)CSSC[C@@H](C(=O)O)NC(=O)[C@H](Cc2c[nH]c3ccccc23)NC(=O)[C@@H]2CCCN2C(=O)[C@H](CO)NC(=O)[C@H](Cc2c[nH]cn2)NC1=O` [cyc-nHSPW, Cys-nHSPW-Cys] (H-C[Nle]HSPWC-OH; disulfide 1-7; N-terminus and C-terminus assumed), at hAPN (aminopeptidase N), the “inhibition of APN (in words)” value is “eliminated any measureable inhibition of APN”. The clonogenic survival entry in the assay with DU145 cells [1] and in the assay with PC3 cells [2] was “No significant biological effect” throughout.

In the case of “cyc-LHSPW-(Gly)4-FITC: fluorophore-containing version of cyc-LHSPW with a (Gly)4-FITC group coupled to the C-terminal cysteine (CLHSPWCGGGG-{FITC′}; disulfide 1-7)”, the “binding to cells by flow cytometry” value with PC3 cells [3] is reported as “selectively labeled the APN-expressing PC3 cells over the APN-null DU145 cells”; with PC3 cells [3] (listed as FITC labeled cyc-LHSPW) it was “preferentially bound to PC3 cells”; with DU145 cells [5], “no noticeable labelling of DU145 cells”. Also, the “labeling of xenograft sections by fluorescence microscopy” value in assay [4] is reported as “Preferential labeling of the PC3 xenograft section was evident”.
